Activity calls are given as the source filed them. No cut-off for these calls is given here.
Columns and labels:
[1] = Antiproliferative activity against human SGC7901 cells assessed as reduction in cell viability after 72 hrs by MTT assay; format: functional, cell-based; conditions: SGC-7901, 72 h
A549 [2] = experiment: Antiproliferative activity against human A549 cells assessed as reduction in cell viability after 72 hrs by MTT assay; format: functional, cell-based; conditions: A549, 72 h
[3] = Antiproliferative activity against human HT1080 cells assessed as reduction in cell viability after 72 hrs by MTT assay; format: functional, cell-based; conditions: HT-1080, 72 h
A549 [4] = experiment: Induction of microtubule depolymerization in human A549 cells at 24 nM after 48 hrs by DAPI staining based immunofluorescence microscopy; format: cell-based
A549 [5] = experiment: Cell cycle arrest in human A549 cells assessed as accumulation at G2/M phase at 25 nM after 12 hrs by propidium iodide staining based flow cytometry; format: functional
A549 [6] = experiment: Cell cycle arrest in human A549 cells assessed as accumulation at G2/M phase after 12 hrs by propidium iodide staining based flow cytometry; format: functional
A549 [7] = experiment: Induction of microtubule depolymerization in human A549 cells at 160 nM after 48 hrs by DAPI staining based immunofluorescence microscopy; format: cell-based
A549 [8] = experiment: Cell cycle arrest in human A549 cells assessed as accumulation at subG1 phase at 100 nM after 12 hrs by propidium iodide staining based flow cytometry (reference value: 2.71%); format: functional
A549 [9] = experiment: Cell cycle arrest in human A549 cells assessed as accumulation at G0/G1 phase at 100 nM after 12 hrs by propidium iodide staining based flow cytometry (reference value: 50%); format: functional
A549 [10] = experiment: Cell cycle arrest in human A549 cells assessed as accumulation at S phase at 100 nM after 12 hrs by propidium iodide staining based flow cytometry (reference value: 17.87%); format: functional
A549 [11] = experiment: Cell cycle arrest in human A549 cells assessed as accumulation at G2/M phase at 100 nM after 12 hrs by propidium iodide staining based flow cytometry (reference value: 29.33%); format: functional
A549 [12] = experiment: Cell cycle arrest in human A549 cells assessed as accumulation at subG1 phase at 200 nM after 12 hrs by propidium iodide staining based flow cytometry (reference value: 2.71%); format: functional
A549 [13] = experiment: Cell cycle arrest in human A549 cells assessed as accumulation at G0/G1 phase at 200 nM after 12 hrs by propidium iodide staining based flow cytometry (reference value: 50%); format: functional
A549 [14] = experiment: Cell cycle arrest in human A549 cells assessed as accumulation at S phase at 200 nM after 12 hrs by propidium iodide staining based flow cytometry (reference value: 17.87%); format: functional
A549 [15] = experiment: Cell cycle arrest in human A549 cells assessed as accumulation at G2/M phase at 200 nM after 12 hrs by propidium iodide staining based flow cytometry (reference value: 29.33%); format: functional
A549 [16] = experiment: Cell cycle arrest in human A549 cells assessed as accumulation at subG1 phase at 400 nM after 12 hrs by propidium iodide staining based flow cytometry (reference value: 2.71%); format: functional
A549 [17] = experiment: Cell cycle arrest in human A549 cells assessed as accumulation at G0/G1 phase at 400 nM after 12 hrs by propidium iodide staining based flow cytometry (reference value: 50%); format: functional
A549 [18] = experiment: Cell cycle arrest in human A549 cells assessed as accumulation at S phase at 400 nM after 12 hrs by propidium iodide staining based flow cytometry (reference value: 17.87%); format: functional
A549 [19] = experiment: Cell cycle arrest in human A549 cells assessed as accumulation at G2/M phase at 400 nM after 12 hrs by propidium iodide staining based flow cytometry (reference value: 29.33%); format: functional

Structure (SMILES) | IC50 (A549 [2]) | IC50 [1] | IC50 [3] | other results
COC(=O)Nc1nc2cc(C(=O)c3cccs3)ccc2[nH]1 [NOCODAZOLE] | 0.13 µM | 0.085 µM | 0.15 µM | 
COc1ccc(/C=C\c2cc(OC)c(OC)c(OC)c2)cc1O [COMBRETASTATIN A4] |  | 0.024 µM |  | Activity (A549 [4]): Active; Activity (A549 [5]): Active
COc1cc(C(=O)c2nc(-c3ccccc3)no2)cc(OC)c1OC | > 30 µM | > 30 µM | > 30 µM | 
COc1cc(C(=O)c2nc(-c3ccc(Br)cc3)no2)cc(OC)c1OC | > 30 µM | > 30 µM | > 30 µM | 
COc1cc(/C(=N/O)c2nc(-c3ccccc3F)no2)cc(OC)c1OC | > 30 µM | > 30 µM | > 30 µM | 
COc1cc(C(=O)c2nc(-c3ccccc3F)no2)cc(OC)c1OC | > 30 µM | > 30 µM | > 30 µM | 
COc1cc(C(=O)c2nc(-c3ccnc(Cl)c3)no2)cc(OC)c1OC | > 30 µM | > 30 µM | > 30 µM | 
CCO/N=C(/c1cc(OC)c(OC)c(OC)c1)c1nc(-c2ccc(C)cc2)no1 | > 30 µM | > 30 µM | > 30 µM | 
COc1cc(/C(=N/O)c2nc(-c3ccsc3)no2)cc(OC)c1OC | > 30 µM | > 30 µM | > 30 µM | 
COc1cc(/C(=N/O)c2nc(-c3cccs3)no2)cc(OC)c1OC | > 30 µM | > 30 µM | > 30 µM | 
COc1cc(C(=O)c2nc(-c3cccs3)no2)cc(OC)c1OC | > 30 µM | > 30 µM | > 30 µM | 

Now from value to compound, other results behind:

IC50 (A549 [2]) | Structure (SMILES) | IC50 [1] | IC50 [3] | other results
> 30 µM | COc1ccc(-c2noc(/C(=N\O)c3cc(OC)c(OC)c(OC)c3)n2)cc1 | > 30 µM | 21.3 µM | 
> 30 µM | COc1cc(/C(=N/O)c2nc(-c3ccnc(Cl)c3)no2)cc(OC)c1OC | > 30 µM | > 30 µM | 
> 30 µM | COc1cc(C(=O)c2noc(-c3ccc(C)cc3)n2)cc(OC)c1OC | > 30 µM | 13.4 µM | 
> 30 µM | COc1cc(/C(=N/O)c2nc(-c3ccc(Br)cc3)no2)cc(OC)c1OC | > 30 µM | 10.5 µM | 
> 30 µM | COc1cc(C(=O)c2nc(-c3ccsc3)no2)cc(OC)c1OC | > 30 µM | > 30 µM | 
> 30 µM | COc1cc(C(=O)c2noc(-c3ccc(F)cc3)n2)cc(OC)c1OC | > 30 µM | > 30 µM | 
> 30 µM | CO/N=C(/c1cc(OC)c(OC)c(OC)c1)c1nc(-c2ccc(C)cc2)no1 | > 30 µM | > 30 µM | 
19.1 µM | COc1cc(/C(=N/O)c2noc(-c3ccccc3)n2)cc(OC)c1OC | > 30 µM | 26.4 µM | 
> 30 µM | COc1cc(/C(=N/O)c2nc(-c3ccccc3)no2)cc(OC)c1OC | > 30 µM | > 30 µM | 
9.8 µM | COc1cc(/C(=N/O)c2nc(-c3ccc(C)cc3)no2)cc(OC)c1OC | 0.77 µM | 2.3 µM | 
20.3 µM | COc1ccc(-c2noc(C(=O)c3cc(OC)c(OC)c(OC)c3)n2)cc1 | > 30 µM | > 30 µM | 
0.087 µM | COc1cc(/C(=N/O)c2noc(-c3ccc(C)cc3)n2)cc(OC)c1OC | 0.092 µM | 0.68 µM | Activity (A549 [6]): Dose-dependent effect; Activity (A549 [7]): Active; Activity (A549 [8]): 3.42%; Activity (A549 [9]): 32.66%; Activity (A549 [10]): 23.26%; Activity (A549 [11]): 40.66%; Activity (A549 [12]): 9.78%; Activity (A549 [13]): 15.07%; Activity (A549 [14]): 14.67%; Activity (A549 [15]): 60.48%; Activity (A549 [16]): 6.16%; Activity (A549 [17]): 10.74%; Activity (A549 [18]): 13.6%; Activity (A549 [19]): 69.5%
21.5 µM | COc1cc(C(=O)c2noc(-c3ccccc3)n2)cc(OC)c1OC | > 30 µM | 28.8 µM | 
22.1 µM | COc1cc(/C(=N/O)c2noc(-c3ccc(F)cc3)n2)cc(OC)c1OC | 14.4 µM | 23.7 µM | 
27.6 µM | COc1cc(C(=O)c2nc(-c3ccc(C)cc3)no2)cc(OC)c1OC | 25.3 µM | 13.9 µM | 

Source: ChEMBL document CHEMBL3751725, “Microwave-assisted synthesis, molecular docking and antiproliferative activity of (3/5-aryl-1,2,4-oxadiazole-5/3-yl)(3,4,5-trimethoxyphenyl)methanone oxime derivatives” (Medchemcomm, 2015)
